Columns and labels:
Type in all cases: functional
KB = assay: Inhibitory activity against protein linked DNA breaks in KB cells at 25 ug/mL after 1 hour; conditions: Homo sapiens
BT-549 = assay: Inhibitory activity against BT549 cell line; inactive; conditions: Homo sapiens, read-out: ID50 (the source's name)
PLC = assay: Inhibitory activity against PLC cell line; inactive; conditions: Homo sapiens, read-out: ID50 (the source's name)
A549 = assay: Inhibitory activity against A549 cell line; inactive; conditions: Homo sapiens, read-out: ID50 (the source's name)
SW480 = assay: Inhibitory activity against SW480 cell line; inactive; conditions: Homo sapiens, read-out: ID50 (the source's name)

| SMILES | inhibition at 25 µg/mL (KB) [%] | IC50 (BT-549) [µM] | IC50 (PLC) [µM] | IC50 (A549) [µM] | IC50 (SW480) [µM] |
| --- | --- | --- | --- | --- | --- |
| CC[C@@]1(O)C(=O)OCc2c1cc1n(c2=O)Cc2c-1nc1ccccc1c2C=O | 107 | – | – | – | – |
| CC[C@@]1(O)C(=O)OCc2c1cc1n(c2=O)Cc2c-1nc1ccccc1c2CO | 97.6 | – | – | – | – |
| CC[C@@]1(O)C(=O)OCc2c1cc1n(c2=O)[C@H](C(=O)c2cc(OC)c(OC)c(OC)c2)c2cc3ccccc3nc2-1 | 0 | > 5 | > 5 | > 5 | > 5 |
| CC[C@@]1(O)C(=O)OCc2c1cc1n(c2=O)C(CO)(CO)c2cc3ccccc3nc2-1 | 0 | > 5 | > 5 | > 5 | > 5 |
| CC[C@@]1(O)C(=O)OCc2c1cc1n(c2=O)[C@@H](CO)c2cc3ccccc3nc2-1 | 8.7 | > 5 | > 5 | > 5 | > 5 |
| CC[C@@]1(O)C(=O)OCc2c1cc1n(c2=O)[C@H](CO)c2cc3ccccc3nc2-1 | 20.4 | > 5 | > 5 | > 5 | > 5 |
| CC[C@@]1(O)C(=O)OCc2c1cc1n(c2=O)Cc2cc3ccccc3nc2-1 [CAMPTOTHECIN] | 100 | – | – | – | – |

Source: ChEMBL document CHEMBL1128143, “The synthesis of 5-substituted camptothecins as potential inhibitors of DNA topoisomerase I” (1995)
